One block for each compound: values may come before it.
Legend:
Monkey [1] = experiment: Changes in airway resistance after administration of 0.3 mg/kg in squirrel monkey; type: functional
Monkey [2] = experiment: Changes in dynamic compliance after administration of 0.3 mg/kg in squirrel monkey (not significant); type: functional
Rattus norvegicus [3] = species: Rattus norvegicus; experiment: Tested for antigen-induced dyspnea in hyperreactive rat model (2 hr pretreatment); type: functional
[4] = molecular target: T1, Polyunsaturated fatty acid 5-lipoxygenase (Rattus norvegicus, UniProt P12527); experiment: In vitro test for inhibition of 5-lipoxygenase in cell-free preparations from rat PMN leukocytes
T1 sequence (P12527 whole entry): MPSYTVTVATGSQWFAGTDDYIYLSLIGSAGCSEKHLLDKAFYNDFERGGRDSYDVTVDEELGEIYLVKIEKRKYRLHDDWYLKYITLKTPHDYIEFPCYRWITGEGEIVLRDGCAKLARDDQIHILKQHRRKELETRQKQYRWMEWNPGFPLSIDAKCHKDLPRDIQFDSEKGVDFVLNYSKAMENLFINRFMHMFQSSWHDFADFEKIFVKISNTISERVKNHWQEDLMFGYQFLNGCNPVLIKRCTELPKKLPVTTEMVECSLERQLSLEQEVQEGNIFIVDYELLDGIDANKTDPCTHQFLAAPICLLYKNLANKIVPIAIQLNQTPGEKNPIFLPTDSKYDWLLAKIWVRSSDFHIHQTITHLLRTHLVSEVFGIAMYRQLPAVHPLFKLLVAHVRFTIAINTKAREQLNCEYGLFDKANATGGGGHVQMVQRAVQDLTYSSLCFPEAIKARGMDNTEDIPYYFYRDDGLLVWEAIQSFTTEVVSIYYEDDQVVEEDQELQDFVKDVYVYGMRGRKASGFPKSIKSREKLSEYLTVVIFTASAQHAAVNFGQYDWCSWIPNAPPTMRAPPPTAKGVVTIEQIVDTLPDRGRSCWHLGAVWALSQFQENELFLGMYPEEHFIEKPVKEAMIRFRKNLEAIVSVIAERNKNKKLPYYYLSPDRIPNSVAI

[5] = Maximum time taken for compound to reach peak concentration in rat plasma; value ranges from 1-2 hrs; type: ADME, organism-based
[6] = Bioavailability in rat (dose 20 mg/kg p.o. in 1% methocel, and 5 mg/kg i.v. in PEG400); type: ADME, organism-based; settings: in vivo, po
Rattus norvegicus [7] = species: Rattus norvegicus; experiment: Tested for percent inhibition of dyspnea duration in hyperreactive rat model; type: functional
[8] = Peak concentration in rat plasma was determined; type: ADME, organism-based
[9] = molecular target: T2, Polyunsaturated fatty acid 5-lipoxygenase (Homo sapiens, UniProt P09917); experiment: In vitro inhibition of LTB4 biosynthesis in [Ca(2+)]-ionophore-activated human polymorphonuclear leukocytes; type: functional
T2 sequence (P09917 whole entry): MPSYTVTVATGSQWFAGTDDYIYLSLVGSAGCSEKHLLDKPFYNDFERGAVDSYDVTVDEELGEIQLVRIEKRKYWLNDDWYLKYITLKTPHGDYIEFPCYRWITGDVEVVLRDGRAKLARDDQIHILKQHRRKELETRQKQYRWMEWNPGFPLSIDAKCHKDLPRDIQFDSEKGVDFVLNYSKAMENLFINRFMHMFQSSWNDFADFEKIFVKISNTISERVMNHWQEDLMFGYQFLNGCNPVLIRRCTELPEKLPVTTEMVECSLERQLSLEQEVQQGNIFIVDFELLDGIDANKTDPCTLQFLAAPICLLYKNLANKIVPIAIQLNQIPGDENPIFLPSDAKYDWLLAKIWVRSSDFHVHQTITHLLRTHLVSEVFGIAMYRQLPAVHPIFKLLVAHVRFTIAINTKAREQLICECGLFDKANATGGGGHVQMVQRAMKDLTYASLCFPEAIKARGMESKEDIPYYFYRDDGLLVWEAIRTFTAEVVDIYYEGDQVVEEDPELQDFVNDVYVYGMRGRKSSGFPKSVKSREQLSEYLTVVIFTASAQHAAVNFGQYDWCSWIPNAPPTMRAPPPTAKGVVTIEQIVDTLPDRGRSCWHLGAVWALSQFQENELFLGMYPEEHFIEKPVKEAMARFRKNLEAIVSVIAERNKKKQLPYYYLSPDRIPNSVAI

Monkey [10] = experiment: Changes in dynamic compliance after administration of 0.3 mg/kg in squirrel monkey; type: functional
[11] = Rate of enzyme inactivation for the compound was determined
Monkey [12] = experiment: Changes in airway resistance after administration of 1 mg/kg in squirrel monkey; type: functional
Rattus norvegicus [13] = species: Rattus norvegicus; experiment: Tested for inhibition of leukotriene B4 in rat pleurisy model (8 hours pretreatment); type: functional
Rattus norvegicus [14] = species: Rattus norvegicus; experiment: Tested for ex-vivo inhibition of leukotriene B4 biosynthesis in rat whole blood; type: functional, organism-based
Rattus norvegicus [15] = species: Rattus norvegicus; experiment: Tested for antigen-induced dyspnea in hyperreactive rat model (2 hours pretreatment); type: functional
Homo sapiens = species: Homo sapiens; experiment: Tested for inhibition of leukotriene B4 synthesis in human PMN leukocytes at 5*10e5 cells/mL concentration; type: functional, cell-based
Monkey [16] = experiment: Changes in dynamic compliance after administration of 1 mg/kg in squirrel monkey; type: functional
[17] = Maximum time taken for compound to reach peak concentration in rat plasma; type: ADME, organism-based
[18] = molecular target: T1, Polyunsaturated fatty acid 5-lipoxygenase; experiment: Tested for inhibition of 5-HPETE production by rat 5-LO; value ranges from 16-36 nM
[19] = molecular target: T2, Polyunsaturated fatty acid 5-lipoxygenase; experiment: Tested for inhibition of 5-HPETE production by human 5-LO
[20] = molecular target: Prostaglandin G/H synthase (cyclooxygenase) (Ovis aries) (UniProt P05979+P79208); experiment: Tested for inhibition against ram seminal vesicle Prostaglandin G/H synthase at a concentration of 10 uM; type: tissue-based
[21] = molecular target: T3, Arachidonate 12-lipoxygenase (Sus scrofa, UniProt P16469); experiment: Tested for inhibition against porcine 12-LO
T3 sequence (P16469 whole entry): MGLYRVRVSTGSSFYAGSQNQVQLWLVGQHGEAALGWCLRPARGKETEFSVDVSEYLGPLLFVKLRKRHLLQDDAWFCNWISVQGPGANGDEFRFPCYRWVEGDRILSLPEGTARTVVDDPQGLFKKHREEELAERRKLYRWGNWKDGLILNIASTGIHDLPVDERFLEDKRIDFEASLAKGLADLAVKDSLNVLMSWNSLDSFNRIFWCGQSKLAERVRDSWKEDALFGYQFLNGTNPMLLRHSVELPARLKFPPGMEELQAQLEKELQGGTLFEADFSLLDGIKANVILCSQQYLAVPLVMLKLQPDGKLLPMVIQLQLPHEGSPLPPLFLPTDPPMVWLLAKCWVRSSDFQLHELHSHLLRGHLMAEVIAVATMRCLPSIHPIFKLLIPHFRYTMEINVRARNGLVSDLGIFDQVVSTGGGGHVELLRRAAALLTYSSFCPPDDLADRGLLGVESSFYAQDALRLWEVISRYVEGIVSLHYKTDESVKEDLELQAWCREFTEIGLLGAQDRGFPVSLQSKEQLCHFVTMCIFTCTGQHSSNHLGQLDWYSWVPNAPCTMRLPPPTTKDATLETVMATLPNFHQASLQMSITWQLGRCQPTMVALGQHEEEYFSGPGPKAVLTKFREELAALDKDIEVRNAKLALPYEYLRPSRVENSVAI

Prostaglandin G/H synthase (cyclooxygenase) (Ovis aries), sequence (P05979 whole entry, looked up): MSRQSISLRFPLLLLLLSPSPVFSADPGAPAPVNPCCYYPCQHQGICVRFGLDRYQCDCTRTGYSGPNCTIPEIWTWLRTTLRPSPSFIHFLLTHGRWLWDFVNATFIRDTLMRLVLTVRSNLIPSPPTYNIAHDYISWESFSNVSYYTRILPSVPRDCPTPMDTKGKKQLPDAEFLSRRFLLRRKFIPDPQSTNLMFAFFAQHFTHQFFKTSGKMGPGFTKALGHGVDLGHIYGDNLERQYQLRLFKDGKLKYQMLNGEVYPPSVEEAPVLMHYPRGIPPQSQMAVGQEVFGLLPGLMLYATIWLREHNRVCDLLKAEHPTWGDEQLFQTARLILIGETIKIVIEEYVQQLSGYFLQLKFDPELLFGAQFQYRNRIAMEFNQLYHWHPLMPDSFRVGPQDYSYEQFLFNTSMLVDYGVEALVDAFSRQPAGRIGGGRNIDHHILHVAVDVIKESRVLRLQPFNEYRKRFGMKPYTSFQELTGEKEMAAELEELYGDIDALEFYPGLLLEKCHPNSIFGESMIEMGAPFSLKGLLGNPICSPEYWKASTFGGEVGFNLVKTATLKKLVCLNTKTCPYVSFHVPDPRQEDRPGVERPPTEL
Prostaglandin G/H synthase (cyclooxygenase) (Ovis aries), sequence (P79208 whole entry, looked up): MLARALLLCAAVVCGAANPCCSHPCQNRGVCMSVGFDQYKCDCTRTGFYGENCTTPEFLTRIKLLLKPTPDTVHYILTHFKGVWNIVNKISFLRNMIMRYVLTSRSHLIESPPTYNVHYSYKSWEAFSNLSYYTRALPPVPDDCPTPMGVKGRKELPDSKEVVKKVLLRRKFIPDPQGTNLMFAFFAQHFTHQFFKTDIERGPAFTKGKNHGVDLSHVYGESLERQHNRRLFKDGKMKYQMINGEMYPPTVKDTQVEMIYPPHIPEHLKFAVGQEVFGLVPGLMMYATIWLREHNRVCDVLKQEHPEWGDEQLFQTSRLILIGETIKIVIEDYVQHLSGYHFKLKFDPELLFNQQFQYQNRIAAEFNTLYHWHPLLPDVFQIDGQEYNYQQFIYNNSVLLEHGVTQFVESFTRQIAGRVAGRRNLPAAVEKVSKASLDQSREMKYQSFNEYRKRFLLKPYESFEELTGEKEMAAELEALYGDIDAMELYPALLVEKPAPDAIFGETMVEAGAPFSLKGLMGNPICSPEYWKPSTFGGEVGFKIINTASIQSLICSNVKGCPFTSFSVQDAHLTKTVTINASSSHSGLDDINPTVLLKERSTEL

Structure (SMILES): CC(C)(C)Sc1c(CC(C)(C)C(=O)O)n(Cc2ccc(Cl)cc2)c2ccc(OCc3ccc4ccccc4n3)cc12 [QUIFLAPON]
RL (Monkey [1]): 44% | Cdyn (Monkey [2]): 46% | ED50 (Rattus norvegicus [3]): 0.16 mg/kg

IC50 [4]: 16 nM | Tmax [5]: 1 h | bioavailability [6]: 36% | Cmax [8]: 8 µM | IC50 [9]: 3 nM
Structure (SMILES): CC1Cc2c(CCc3ccc(-c4ccccc4)cn3)ccc3c2c(c(CC(C)(C)Cc2nnn[nH]2)n3Cc2ccc(Cl)cc2)S1 (stereo not drawn)
Inhibition (Rattus norvegicus [7]): 37%

IC50 [4]: 17 nM | kinact [11]: 0.009 s⁻¹ | IC50 (Rattus norvegicus [14]): 1500 nM | bioavailability [6]: 40% | IC50 (Homo sapiens): 10 nM | Tmax [17]: 6 h | IC50 [18]: 16 nM | Cmax [8]: 10 µM | IC50 [19]: 75 nM | inhibition [20]: 59% | IC50 [21]: 2800 nM | IC50 [9]: 8 nM
Structure (SMILES): CC1Cc2c(OCc3ccc(-c4ccccc4)cn3)ccc3c2c(c(CC(C)(C)Cc2nnn[nH]2)n3Cc2ccc(Cl)cc2)S1 (stereo not drawn)
RL (Monkey [1]): 17.5% | Cdyn (Monkey [10]): -11.2% | RL (Monkey [12]): 12.6% | ED50 (Rattus norvegicus [13]): 1.9 mg/kg | ED50 (Rattus norvegicus [15]): 0.1 mg/kg | Cdyn (Monkey [16]): -9.2% | Inhibition (Rattus norvegicus [7]): 70%

Source: ChEMBL document CHEMBL1126955, “Substituted thiopyrano[2,3,4-c,d]indoles as potent, selective, and orally active inhibitors of 5-lipoxygenase. Synthesis and biological evaluation of L-691,816” (J Med Chem, 1993)
